{"source": "patent US11628172B2", "about": "“Methods of treating chronic lymphocytic leukemia using 2-(2,6-dioxopiperidin-3-yl)-4-((2-fluoro-4-((3-morpholinoazetidin-1-yl)methyl)benzyl)amino)isoindoline-1,3-dione” (Celgene Corporation, priority 2019, dated 2023)", "tested_on": "primary CLL cells from patient-derived blood (CD5+CD19+ tumor cells)", "assay": "Compound 1 in combination with obinutuzumab in B-cell CLL patient cells (ex vivo co-culture, flow cytometry, Caspase3)", "assay_type": "cell-based, human", "details": "144 h", "description": "Obinutuzumab (GA101) is a humanized, glycoengineered type 2 antibody targeted against CD20. […] The effect of treatment with Compound 1 in combination with obinutuzumab on the proliferation and survival of CLL B cells was assessed utilizing an ex vivo model where primary CLL cells from patient-derived blood were stimulated to proliferate with 10% fetal bovine serum (FBS), 5 ng/mL recombinant human interleukine-4 (rh IL-4), 10 ng/mL recombinant human interleukine-10 (rh IL-10) and co-cultured with fibroblast expressing surface CD154 (CD40L) in a 96 well plate format.\nPeripheral blood mononuclear cells (PBMCs) from CLL patients (Table 7) containing 52%-86% of CD5^+CD19^+ tumor cells were cultured at a density of 0.06-0.1×10^6 cells/well on a monolayer of CD154-expressing fibroblasts at a density of 0.09×10^6 cells/well in 96-well plates in RPMI 1640 medium supplemented with 10% FBS, 5 ng/mL rh IL-4 and 10 ng/mL rh IL-10. The cells were treated with vehicle control (0.1% DMSO) or increasing concentrations of Compound 1 ranging from 0.0001 to 1 μM and GA101 at concentrations ranging from 8 ng/mL to 5 ug/mL across all the different concentrations of Compound 1. After 144 h of treatment with both the agents, flow cytometric analysis was used to determine the number of tumor cells that were viable or apoptotic.\nThe tumor cell count was assessed by staining the patient PBMCs in each condition with tumor cell surface markers CD5 & CD19 along with Live/Dead fixable dye to exclude the dead cells and followed by intracellular staining for Caspase3 antibody to identify the apoptotic cells and was measured by flow cytometry (Attune NxT, Thermo Fisher). The live tumor cell count for each condition was calculated by normalizing to the precision count beads added to each sample.\nThe live tumor cell count was then normalized to the DMSO control (considered as 100% viable) to calculate the percentage of viable cells remaining after treatment. The normalized percentage of tumor cells was then represented as a heat map using Graph Pad Prism 8.0.0 to indicate the degree of tumor toxicity for each of the combinations (FIG. 1). Based on the data shown in FIG. 1, synergy/additivity calculations were performed using the HSA and Bliss Independence Model.\nFor apoptosis analysis, the percentage of apoptosis combining both “early” (Caspase 3 positive and Live-Dead fixable dye negative) and “late” apoptosis (Caspase 3 and Live-Dead fixable dye positive) cell gates subtracting the baseline DMSO value was graphed using GraphPad Prism 8.0.0.0. The Ymax (maximal percentage of apoptosis achieved) values from apoptosis curves were calculated by performing a nonlinear regression curve fitting using log(agonist) vs. normalized response—Variable slope analysis and identifying the maximum value on GraphPad Prism 8.0.0 (Table 8)."}
{"substance": "Obinutuzumab: humanized, glycoengineered type 2 antibody targeted against CD20", "values": [{"measurement": "induction of apoptosis (in words)", "setting": "CLL patient cells Pt 11-14, Table 8", "result": "induced apoptosis alone"}, {"measurement": "Ymax of Pt 11 (%)", "setting": "Pt 11, single agent (Cpd1 DRC with DMSO, or obinutuzumab alone), apoptosis (Caspase 3), DMSO baseline subtracted", "result": 27.98, "unit": "%"}, {"measurement": "Ymax of Pt 12 (%)", "setting": "Pt 12, single agent (Cpd1 DRC with DMSO, or obinutuzumab alone), apoptosis (Caspase 3), DMSO baseline subtracted", "result": 24.91, "unit": "%"}, {"measurement": "Ymax of Pt 13 (%)", "setting": "Pt 13, single agent (Cpd1 DRC with DMSO, or obinutuzumab alone), apoptosis (Caspase 3), DMSO baseline subtracted", "result": 35.87, "unit": "%"}, {"measurement": "Ymax of Pt 14 (%)", "setting": "Pt 14, single agent (Cpd1 DRC with DMSO, or obinutuzumab alone), apoptosis (Caspase 3), DMSO baseline subtracted", "result": 25.82, "unit": "%"}]}
